Measurements reported in US8268961B2, “Antibacterial peptides and analogues thereof” (Universita Degli Studi di Siena, priority 2004, dated 2012).
Where two headings read alike, the source gives them in different places. Positions of bridges follow the written chain, without caps; N, C: chain ends. Chains are numbered I, II in the order given. No end group written: not given here.

Experiments:
[1] = system: E. coli plasmid vector pCEP4 DNA; assay: DNA binding assay (gel retardation)
Experimental: In an attempt to clarify the molecular mechanism of action, the authors examined the binding properties on DNA exerted by M6 dendrimeric peptide and magainin 2, an antimicrobial peptide which has a pore-forming activity on the cell membrane. The DNA binding abilities of M6 and magainin 2 were examined by analyzing the electrophoretic mobility of DNA bands at the various weight ratios of peptides to DNA on a 1% (w/v) agarose gel.
Gel-retardation experiments were performed by mixing 200 ng of the E. coli plasmid vector pCEP4 (Invitrogen) with increasing amounts of M6 peptide in 20 μl of binding buffer (5% glycerol, 10 mM Tris-HCl (pH 8.0), 1 mM EDTA, 1 mM DTT, 20 mM KCl and 50 μg/ml BSA). The reaction mixtures were incubated at room temperature for 1 h. Subsequently, 4 μl of native loading buffer was added (40% saccarose, 0.25% bromophenol blue) and an aliquot of 12 μl was applied to a 1% agarose gel electrophoresis in 1 mM Tris borate-EDTA buffer.

[2] = system: Morganella morganii W03VA1342; assay: MIC, standard microdilution assay; format: cell-based; settings: Morganella morganii W03VA1342, FQR ESCR (ESBL/CTX-M-1)
From the text: (§1) MIC is defined as the lowest concentration, in an antibiotic dilution range, that inhibits visible bacterial growth. The importance of MIC sensitivity test is based on the principle that in vitro sensitivity provides a predictive indication of the in vivo efficacy of the antibiotic therapy. Values are expressed as molar concentration and compared to MIC values obtained with commercially available antibiotics such as amikacin, ceftriaxone and levofloxacin (Table 3).
(§2) Reference strains (Escherichia coli ATCC 25922, Pseudomonas aeruginosa ATCC 27853, Staphylococus aureus ATCC 25923 and Chryseobacterium meningosepticum CCUG 4310) and several recent clinical isolates (including multidrug-resistant ones) of various species (Table 2) were used for conventional susceptibility testing experiments. Minimum Inhibitory Concentration (MIC) was determined by a standard microdilution assay as recommended by the National Commitee for Clinical Laboratory Standards (NCCLS) using cation-supplemented Mueller-Hinton (MH) broth (Oxoid Ltd. Basingstoke, UK) and a bacterial inoculum of 5×10^4 CFU per well, in a final volume of 100 μl. Results were recorded by visual inspection after 24 h of incubation at 37° C.

[3] = system: Chryseobacterium meningosepticum CCUG4310; assay: MIC, standard microdilution assay; format: cell-based; settings: Chryseobacterium meningosepticum CCUG4310, reference strain
From the text: as §1, §2

[4] = system: Providencia stuartii W03FI0001; assay: MIC, standard microdilution assay; format: cell-based; settings: Providencia stuartii W03FI0001, AGR ESCR (ESBL/PER-1)
From the text: as §1, §2

[5] = system: Stenotrophomonas maltophilia PT4/99; assay: MIC, standard microdilution assay; format: cell-based; settings: Stenotrophomonas maltophilia PT4/99, wild-type profile
From the text: as §1, §2

[6] = system: Serratia marcescens W99FI0111; assay: MIC, standard microdilution assay; format: cell-based; settings: Serratia marcescens W99FI0111, FQR AGR ESCR (ESBL/SHV-5)
From the text: as §1, §2

[7] = system: Proteus mirabilis W99FI0089; assay: MIC, standard microdilution assay; format: cell-based; settings: Proteus mirabilis W99FI0089, FQR
From the text: as §1, §2

[8] = system: Proteus mirabilis W03VA1144; format: cell-based
Outline: (§3)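 MIC, given in molar units, was taken as the lowest concentration without visible growth after 24 h at 37° C. Testing followed the NCCLS microdilution method using cation-supplemented Mueller-Hinton broth and 5×10^4 CFU per well.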

[9] = system: Enterobacter aerogenes W03BG0067; format: cell-based
Outline: as §3

[10] = system: Citrobacter freundii W99FI00007; format: cell-based
Outline: as §3

[11] = system: Escherichia coli W03BG0025; format: cell-based
Outline: as §3

[12] = system: Pseudomonas aeruginosa 891; format: cell-based; settings: 891
Outline: as §3

[13] = system: Pseudomonas aeruginosa ATCC27853; format: cell-based; settings: ATCC27853
Outline: (§4)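 cation-suppl. MH broth, std microdilution (NCCLS); 5×10^4 CFU/well; 24 h, 37° C; visual read; MIC = lowest conc. with no visible growth, molar units.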

[14] = system: Pseudomonas aeruginosa 885149; format: cell-based; settings: 885149
Outline: as §3

[15] = system: Escherichia coli W03NO0013; format: cell-based
Outline: as §3

[16] = system: Staphylococcus aureus ATCC 25923; format: cell-based; settings: Staphylococcus aureus ATCC 25923, reference strain
Outline: as §4

[17] = system: Burkholderia cepacia SMC71; format: cell-based
Outline: as §3

[18] = system: Klebsiella pneumoniae W03NO0078; format: cell-based
Outline: as §3

[19] = system: Klebsiella pneumoniae W03BG0019; format: cell-based
Outline: as §3

[20] = system: Escherichia coli ATCC 25922; format: cell-based; settings: ATCC 25922
Outline: as §3

[21] = system: Escherichia coli W99FI0077; format: cell-based; settings: W99FI0077
Outline: as §3

[22] = system: Klebsiella pneumoniae W99FI0057; format: cell-based; settings: W99FI0057
Outline: as §3

[23] = system: Acinetobacter baumannii AB1MG; format: cell-based
Outline: as §3

[24] = system: Enterobacter cloacae W03AN0041; format: cell-based
Outline: as §3

[25] = system: Acinetobacter baumannii AB7MG; format: cell-based
Outline: as §3

[26] = system: Klebsiella oxytoca W99FI00049; format: cell-based
Outline: as §3

[27] = system: Pseudomonas aeruginosa VA463/98; format: cell-based
Outline: as §3

I: QKKIRVRLSAKKA-OH / II: QKKIRVRLSAK / III: QKKIRVRLSA / IV: QKKIRVRLSA (amide I:11-IV:C, I:12-II:C, II:11-III:C) [M6, QKKIRVRLSA]
Weight ratio of peptide to DNA at which migration of DNA is inhibited ([1]; 200 ng pCEP4, 1% agarose gel, 1 h room temperature): > 0.2
DNA binding tightness relative to magainin 2 ([1]; from gel retardation weight ratios): over 25 times
MIC (Molarity) [2]: >49 µM
MIC (Molarity) [3]: >49 µM
MIC (Molarity) [4]: >49 µM
MIC (Molarity) [5]: >49 µM
MIC (Molarity) [6]: >49 µM
MIC (Molarity) [7]: >49 µM
MIC (Molarity) [8]: 12 µM
MIC (Molarity) [9]: 1.5 µM
MIC (Molarity) [10]: 3 µM
MIC (Molarity) [11]: 1.5 µM
MIC (Molarity) [12]: 1.5 µM
MIC (Molarity) [13]: 0.76 µM
MIC (Molarity) [14]: 1.5 µM
MIC (Molarity) [15]: 1.5 µM
MIC (Molarity) [16]: >4.9e-05 M
MIC (Molarity) ([16]; listed as QKKIRVRLSA): ~10^−5 M
MIC (Molarity) [17]: 12 µM
MIC (Molarity) [18]: 3 µM
MIC (Molarity) [19]: 1.5 µM
MIC (Molarity) [20]: 1.5 µM
MIC (Molarity) [21]: 1.5 µM
MIC (Molarity) [22]: 0.76 µM
MIC (Molarity) [23]: 3 µM
MIC (Molarity) [24]: 0.76 µM
MIC (Molarity) [25]: 6 µM
MIC (Molarity) [26]: 12 µM
MIC (Molarity) [27]: 0.76 µM
